Source: patent publication US9452986B2, “6-heteroaryloxy- or 6-aryloxy-quinoline-2-carboxamides and method of use” (AbbVie Inc., priority 2014, dated 2016)

biological target: recombinant human Nav1.7 (Homo sapiens (Human), UniProt Q15858); assay: FRET-based membrane potential assay, recombinant human sodium channel Nav1.7; type: cell-based; settings: HEK293 cells stably expressing recombinant human Nav1.7; veratridine + scorpion venom depolarization; read-out: FRET-Membrane Potential Nav1.7 IC50
Sequence (Q15858 whole entry): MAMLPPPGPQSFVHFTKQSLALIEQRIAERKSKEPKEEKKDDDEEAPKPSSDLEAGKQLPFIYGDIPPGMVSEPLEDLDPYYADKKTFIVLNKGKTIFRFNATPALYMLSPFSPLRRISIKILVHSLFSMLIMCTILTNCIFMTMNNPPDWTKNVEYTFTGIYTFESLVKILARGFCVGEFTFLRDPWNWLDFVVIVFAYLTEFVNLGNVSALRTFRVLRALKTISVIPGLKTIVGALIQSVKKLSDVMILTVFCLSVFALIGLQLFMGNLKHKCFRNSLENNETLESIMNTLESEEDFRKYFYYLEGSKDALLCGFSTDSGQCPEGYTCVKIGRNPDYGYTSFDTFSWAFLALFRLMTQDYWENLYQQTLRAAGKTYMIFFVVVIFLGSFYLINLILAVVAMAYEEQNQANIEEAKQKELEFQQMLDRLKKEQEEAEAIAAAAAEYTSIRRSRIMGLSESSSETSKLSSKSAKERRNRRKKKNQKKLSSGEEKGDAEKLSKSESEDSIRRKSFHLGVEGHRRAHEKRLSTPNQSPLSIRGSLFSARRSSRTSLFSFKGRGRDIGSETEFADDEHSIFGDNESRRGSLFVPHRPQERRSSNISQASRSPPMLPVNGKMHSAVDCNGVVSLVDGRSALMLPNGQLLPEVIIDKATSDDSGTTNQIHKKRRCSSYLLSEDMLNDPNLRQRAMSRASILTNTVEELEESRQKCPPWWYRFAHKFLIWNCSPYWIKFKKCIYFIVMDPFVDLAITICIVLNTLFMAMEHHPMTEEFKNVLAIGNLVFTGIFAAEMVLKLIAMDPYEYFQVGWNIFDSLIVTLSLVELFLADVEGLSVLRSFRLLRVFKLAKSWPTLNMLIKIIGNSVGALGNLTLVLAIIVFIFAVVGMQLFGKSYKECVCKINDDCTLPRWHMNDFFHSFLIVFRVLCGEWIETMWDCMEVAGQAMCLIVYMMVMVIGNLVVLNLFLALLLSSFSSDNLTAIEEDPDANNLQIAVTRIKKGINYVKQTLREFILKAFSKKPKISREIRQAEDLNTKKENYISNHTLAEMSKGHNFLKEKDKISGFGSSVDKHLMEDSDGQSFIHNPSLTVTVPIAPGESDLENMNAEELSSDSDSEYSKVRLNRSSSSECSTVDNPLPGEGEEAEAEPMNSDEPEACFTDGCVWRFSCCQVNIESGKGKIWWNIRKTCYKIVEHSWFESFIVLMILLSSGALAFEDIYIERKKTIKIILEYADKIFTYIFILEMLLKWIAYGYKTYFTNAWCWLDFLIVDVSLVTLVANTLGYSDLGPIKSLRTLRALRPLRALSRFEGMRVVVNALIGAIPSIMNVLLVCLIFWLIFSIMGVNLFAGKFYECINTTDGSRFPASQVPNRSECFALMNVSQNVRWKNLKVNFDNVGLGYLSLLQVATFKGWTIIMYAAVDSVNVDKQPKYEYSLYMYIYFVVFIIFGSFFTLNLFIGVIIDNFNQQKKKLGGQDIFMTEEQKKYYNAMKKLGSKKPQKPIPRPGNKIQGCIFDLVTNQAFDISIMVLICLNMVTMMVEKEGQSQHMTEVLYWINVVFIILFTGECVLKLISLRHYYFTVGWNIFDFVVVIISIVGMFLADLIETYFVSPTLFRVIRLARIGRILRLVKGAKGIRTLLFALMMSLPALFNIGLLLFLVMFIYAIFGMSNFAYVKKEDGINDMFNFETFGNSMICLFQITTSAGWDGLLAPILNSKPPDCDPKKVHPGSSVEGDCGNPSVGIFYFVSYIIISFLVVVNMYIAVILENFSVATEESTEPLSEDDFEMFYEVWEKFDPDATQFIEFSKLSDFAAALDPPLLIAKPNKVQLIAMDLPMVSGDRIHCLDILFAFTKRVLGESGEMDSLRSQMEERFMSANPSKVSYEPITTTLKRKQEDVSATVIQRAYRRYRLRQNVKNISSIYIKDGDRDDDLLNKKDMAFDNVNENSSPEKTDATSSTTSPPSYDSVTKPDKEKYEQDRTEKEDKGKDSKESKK
In short: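 Channel activation used veratridine at its EC80, set by a dilution curve each experiment, together with Leiurus scorpion venom, added 3 min after compound. Membrane-potential ratio signals from FLIPR Tetra in HEPES-buffered HBSS were fitted to a four-parameter Hill equation for percent inhibition and IC50.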

Structure (SMILES)	IC50
O=C(c1ccc2cc(Oc3ccc(C(F)(F)F)cn3)ccc2n1)N1CCN(S(=O)(=O)CCC(F)(F)F)CC1 [Example 332, (6-{[5-(trifluoromethyl)pyridin-2-yl]oxy}quinolin-2-yl) {4-[(3,3,3-trifluoropropyl)sulfonyl]piperazin-1-yl}methanone]	10100 nM
O=C(NCC(F)F)c1ccc2cc(Oc3ccc(C(F)(F)F)cn3)ccc2n1 [Example 347, N-(2,2-difluoroethyl)-6-{[5-(trifluoromethyl)pyridin-2-yl]oxy}quinoline-2-carboxamide]	2630 nM
O=C(NC1CCC(F)(F)C1)c1ccc2cc(Oc3ccc(C(F)(F)F)cn3)ccc2n1 (centres unmarked) [Example 485, N-(3,3-difluorocyclopentyl)-6-{[5-(trifluoromethyl)pyridin-2-yl]oxy}quinoline-2-carboxamide]	3140 nM
CCN(CC)C(=O)CCNC(=O)c1ccc2cc(Oc3ccc(C(F)F)cn3)ccc2n1 [Example 467, N-[3-(diethylamino)-3-oxopropyl]-6-{[5-(difluoromethyl)pyridin-2-yl]oxy}quinoline-2-carboxamide]	521 nM
O=C(NCC(=O)N1CCC(F)C1)c1ccc2cc(Oc3ccc(C(F)(F)F)cn3)ccc2n1 (centres unmarked) [Example 573, N-[2-(3-fluoropyrrolidin-1-yl)-2-oxoethyl]-6-{[5-(trifluoromethyl)pyridin-2-yl]oxy}quinoline-2-carboxamide]	987 nM
CC(C)[C@H]1CN(C(=O)c2ccc3cc(Oc4ccc(C(F)(F)F)cn4)ccc3n2)CCN1 [Example 274, [(3S)-3-isopropylpiperazin-1-yl](6-{[5-(trifluoromethyl)pyridin-2-yl]oxy}quinolin-2-yl)methanone]	304 nM
COCCCNC(=O)c1ccc2cc(Oc3ccc(C(F)(F)F)cn3)ccc2n1 [Example 599, N-(3-methoxypropyl)-6-{[5-(trifluoromethyl)pyridin-2-yl]oxy}quinoline-2-carboxamide]	1590 nM
O=C(c1ccc2cc(Oc3ccc(C(F)(F)F)cn3)ccc2n1)N1CCNC[C@@H]1CO [Example 243, [(2R)-2-(hydroxymethyl)piperazin-1-yl](6-{[5-(trifluoromethyl)pyridin-2-yl]oxy}quinolin-2-yl)methanone]	> 20000 nM
CC(=O)C1CN(C(=O)c2ccc3cc(Oc4ccc(C(F)(F)F)cn4)ccc3n2)C1 [Example 506, 1-{1-[(6-{[5-(trifluoromethyl)pyridin-2-yl]oxy}quinolin-2-yl)carbonyl]azetidin-3-yl}ethanone]	781 nM
CC(O)c1ccc(Oc2ccc3nc(C(=O)N4CCNCC4)ccc3c2)cc1 (centres unmarked) [Example 275, {6-[4-(1-hydroxyethyl)phenoxy]quinolin-2-yl}(piperazin-1-yl)methanone]	11400 nM
COC(=O)N1CCN(C(=O)c2ccc3cc(Oc4ccc(C(F)(F)F)cn4)ccc3n2)CC1 [Example 186, methyl 4-[(6-{[5-(trifluoromethyl)pyridin-2-yl]oxy}quinolin-2-yl)carbonyl]piperazine-1-carboxylate]	3970 nM
C[C@@H]1CN2CC(F)(F)C[C@@H]2CN1C(=O)c1ccc2cc(Oc3ccc(C(F)(F)F)cn3)ccc2n1 [Example 358, [(3R,8aR)-7,7-difluoro-3-methylhexahydropyrrolo[1,2-a]pyrazin-2(1H)-yl](6-{[5-(trifluoromethyl)pyridin-2-yl]oxy}quinolin-2-yl)methanone]	1310 nM
CC(C)(O)CNC(=O)c1ccc2cc(Oc3ccc(C(F)F)cn3)ccc2n1 [Example 434, 6-{[5-(difluoromethyl)pyridin-2-yl]oxy}-N-(2-hydroxy-2-methylpropyl)quinoline-2-carboxamide]	5580 nM
O=C(NCC(=O)N1CCC[C@@H]1CO)c1ccc2cc(Oc3ccc(C(F)(F)F)cn3)ccc2n1 [Example 570, N-{2-[(2R)-2-(hydroxymethyl)pyrrolidin-1-yl]-2-oxoethyl}-6-{[5-(trifluoromethyl)pyridin-2-yl]oxy}quinoline-2-carboxamide]	977 nM
CCN(CC)C(=O)CNC(=O)c1ccc2cc(Oc3ccc(C(F)F)cn3)ccc2n1 [Example 461, N-[2-(diethylamino)-2-oxoethyl]-6-{[5-(difluoromethyl)pyridin-2-yl]oxy}quinoline-2-carboxamide]	354 nM
O=C(NCCC(=O)N1CCOCC1)c1ccc2cc(Oc3ccc(C(F)F)cn3)ccc2n1 [Example 459, 6-{[5-(difluoromethyl)pyridin-2-yl]oxy}-N-[3-(morpholin-4-yl)-3-oxopropyl]quinoline-2-carboxamide]	8690 nM
C=CCN(C)C(=O)c1ccc2cc(Oc3ccc(C(F)(F)F)cn3)ccc2n1 [Example 366, N-allyl-N-methyl-6-{[5-(trifluoromethyl)pyridin-2-yl]oxy}quinoline-2-carboxamide]	3180 nM
O=C(c1ccc2cc(Oc3ccc(C(F)(F)F)cn3)ccc2n1)N1CC[C@@H](N2CCCCC2)C1 [Example 319, [(3R)-3-(piperidin-1-yl)pyrrolidin-1-yl](6-{[5-(trifluoromethyl)pyridin-2-yl]oxy}quinolin-2-yl)methanone]	285 nM
COc1ccccc1N1CC(NC(=O)c2ccc3cc(Oc4ccc(C(F)(F)F)cn4)ccc3n2)CC1=O (centres unmarked) [Example 502, N-[1-(2-methoxyphenyl)-5-oxopyrrolidin-3-yl]-6-{[5-(trifluoromethyl)pyridin-2-yl]oxy}quinoline-2-carboxamide]	429 nM
NC(=O)CNC(=O)c1ccc2cc(Oc3ccc(C(F)(F)F)cn3)ccc2n1 [Example 150, N-(2-amino-2-oxoethyl)-6-{[5-(trifluoromethyl)pyridin-2-yl]oxy}quinoline-2-carboxamide]	2280 nM
O=C(c1ccc2cc(Oc3ccc(C(F)(F)F)cn3)ccc2n1)N1CC[C@H](NS(=O)(=O)c2ccc(C(F)(F)F)cc2)[C@H]1c1ccccc1 [Example 225, N-{(2R,3S)-2-phenyl-1-[(6-{[5-(trifluoromethyl)pyridin-2-yl]oxy}quinolin-2-yl)carbonyl]pyrrolidin-3-yl}-4-(trifluoromethyl)benzenesulfonamide]	> 20000 nM

same assay, conditions: read-out: FRET-Membrane Potential Nav1.7 IC50

Structure (SMILES)	IC50
CC(C)N1CCN(C(=O)c2ccc3cc(Oc4ccc(C(F)(F)F)cn4)ccc3n2)CC1 [Example 231, (4-isopropylpiperazin-1-yl)(6-{[5-(trifluoromethyl)pyridin-2-yl]oxy}quinolin-2-yl)methanone]	783 nM
C[C@H](O)CNC(=O)c1ccc2cc(Oc3ccc(C(F)(F)F)cn3)ccc2n1 [Example 410, N-[(2S)-2-hydroxypropyl]-6-{[5-(trifluoromethyl)pyridin-2-yl]oxy}quinoline-2-carboxamide]	557 nM
O=C(c1ccc2cc(Oc3ccc(C(F)(F)F)cn3)ccc2n1)N1C[C@@H]2CN[C@@H]2C1 [Example 278, (1S,5S)-3,6-diazabicyclo[3.2.0]hept-3-yl(6-{[5-(trifluoromethyl)pyridin-2-yl]oxy}quinolin-2-yl)methanone]	3720 nM
O=C(N[C@H]1CS(=O)(=O)C[C@@H]1O)c1ccc2cc(Oc3ccc(C(F)(F)F)cn3)ccc2n1 [Example 425, N-[(3R,4R)-4-hydroxy-1,1-dioxidotetrahydrothiophen-3-yl]-6-{[5-(trifluoromethyl)pyridin-2-yl]oxy}quinoline-2-carboxamide]	9090 nM
O=C(c1ccc2cc(Oc3ccc(C(F)(F)F)cn3)ccc2n1)N1CCOCC1 [Example 296, morpholin-4-yl(6-{[5-(trifluoromethyl)pyridin-2-yl]oxy}quinolin-2-yl)methanone]	12400 nM
